Assay results from patent publication US20090203763A1, “SUBSTITUTED BENZHYDRYLETHERS” (AUSPEX PHARMACEUTICALS, INC., priority 2008, published 2009).

How the values were obtained:
[1] = after both one-time and repeated (daily) administration; Verster et al. 2004; cited from earlier work
[2] = In vitro human liver microsomal (HLM) stability assay; type: in vitro ADME; settings: human liver microsomes 1 mg per mL protein, 1 μM compound, about 37° C.; as compared to the non-isotopically enriched drug
Protocol: Liver microsomal stability assays were conducted at 1 mg per mL liver microsome protein with an NADPH-generating system in 2% NaHCO3 (2.2 mM NADPH, 25.6 mM glucose 6-phosphate, 6 units per mL glucose 6-phosphate dehydrogenase and 3.3 mM MgCl2). Test compounds were prepared as solutions in 20% acetonitrile-water and added to the assay mixture (final assay concentration 1 μM) and incubated at about 37° C. Final concentration of acetonitrile in the assay should be <1%. Aliquots (50 μL) were taken out at times 0, 0.25, […], and 1 hours, and diluted with ice cold acetonitrile (200 μL) to stop the reactions. Samples were centrifuged at 12,000 RPM for about 10 min to precipitate proteins. Supernatants were transferred to micro centrifuge tubes and stored for LC/MS/MS analysis of the degradation half-life of the test compounds.
Results of In Vitro Human Liver Microsomal (HLM) Stability Assay—Percent Change in Degradation Half-Life

Row | SMILES | Percent Change in Degradation Half-Life, 0%-50% [2] | Percent Change in Degradation Half-Life, −25%-0% [2] | further results
1 | CN1CCC[C@@H]1CCO[C@](C)(c1ccccc1)c1ccc(Cl)cc1 [Clemastine, 2-[2-[1-(4-chlorophenyl)-1-phenyl-ethoxy]ethyl]-1-methyl-pyrrolidine] |  |  | effect on driving performance [1]: significantly impair driving performance
2 | O=C(O)/C=C/C(=O)O.[2H]C([2H])(C[C@H]1CCCN1C)O[C@](C)(c1ccccc1)c1ccc(Cl)cc1 [Example 2, (R)-2-[2-[(R)-1-(4-Chlorophenyl)-1-phenylethoxy]ethyl-2,2-d2]-1-methylpyrrolidine fumarate] | + (0%-50%) |  | 
3 | O=C(O)/C=C/C(=O)O.[2H]C([2H])(O[C@](C)(c1ccccc1)c1ccc(Cl)cc1)C([2H])([2H])[C@H]1CCCN1C [Example 3, (R)-2-[2-[(R)-1-(4-Chlorophenyl)-1-phenylethoxy]ethyl-2,2-d4]-1-methyl-pyrrolidine fumarate] | + (0%-50%) |  | 
4 | O=C(O)/C=C/C(=O)O.[2H]C([2H])([2H])N1CCC[C@@H]1CCO[C@](C)(c1ccccc1)c1ccc(Cl)cc1 [Example 4, (R)-2-[2-[(R)-1-(4-Chlorophenyl)-1-phenylethoxy]ethyl]-1-methyl-d3-pyrrolidine fumarate] |  | + (−25%-0%) | 
5 | O=C(O)/C=C/C(=O)O.[2H]C([2H])(C[C@H]1CCCN1C([2H])([2H])[2H])O[C@](C)(c1ccccc1)c1ccc(Cl)cc1 [Example 5, (R)-2-[2-[(R)-1-(4-Chlorophenyl)-1-phenylethoxy]ethyl-2,2-d2]-1-methyl-d3-pyrrolidine fumarate] |  | + (−25%-0%) | 
6 | O=C(O)/C=C/C(=O)O.[2H]C([2H])([2H])N1CCC[C@@H]1C([2H])([2H])C([2H])([2H])O[C@](C)(c1ccccc1)c1ccc(Cl)cc1 [Example 6, (R)-2-[2-[(R)-1-(4-Chlorophenyl)-1-phenylethoxy]ethyl-1,1,2,2-d4]-1-methyl-d3-pyrrolidine fumarate] | + (0%-50%) |  | 
